Laboratory results: patent US7691848B2, “Pyrrolobenzodiazepine arylcarboxamides and derivatives thereof as follicle-stimulating hormone receptor antagonists” (Wyeth, priority 2005, dated 2010)
pIC50: −log10 of the molar value. Read-outs that look alike come from different tables or passages of the source.

Assays:
human FSH receptor = target: T1, human FSH receptor (Homo sapiens, UniProt P23945); test: Follicle-Stimulating Hormone Receptor-Dependent Cre-Luciferase Reporter Gene Assay (CHO FSH-R 6CRE-Luc cells); format: cell-based; conditions: for pIC50: dose-response format, in presence of EC50 of purified human FSH
T1 construct: host or cells: CHO-K1 (CHO FSH-R 6CRE-Luc, 1D7 cells)
T1 sequence (P23945 18-695): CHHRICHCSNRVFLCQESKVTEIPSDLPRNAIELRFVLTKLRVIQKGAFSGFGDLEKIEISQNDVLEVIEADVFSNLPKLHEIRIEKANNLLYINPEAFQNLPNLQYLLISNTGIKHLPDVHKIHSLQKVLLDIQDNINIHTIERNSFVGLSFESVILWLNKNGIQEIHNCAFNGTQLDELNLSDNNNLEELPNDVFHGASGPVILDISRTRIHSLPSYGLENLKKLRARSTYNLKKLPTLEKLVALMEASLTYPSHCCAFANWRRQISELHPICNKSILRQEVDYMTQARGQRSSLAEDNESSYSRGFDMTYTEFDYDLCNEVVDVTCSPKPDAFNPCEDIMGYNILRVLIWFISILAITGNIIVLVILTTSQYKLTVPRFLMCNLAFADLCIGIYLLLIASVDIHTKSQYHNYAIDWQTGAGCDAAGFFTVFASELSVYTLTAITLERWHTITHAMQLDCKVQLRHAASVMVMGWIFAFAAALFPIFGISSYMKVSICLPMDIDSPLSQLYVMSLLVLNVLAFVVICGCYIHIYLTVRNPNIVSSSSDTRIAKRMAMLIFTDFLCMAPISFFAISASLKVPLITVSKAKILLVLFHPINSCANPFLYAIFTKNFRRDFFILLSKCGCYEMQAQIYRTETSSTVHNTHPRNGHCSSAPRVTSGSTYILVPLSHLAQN
How it was run: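 CHO-K1 cells stably expressing human FSH receptor and a 6×CRE-driven luciferase reporter; compounds in growth medium with 0.2% DMSO, incubated 4 h at 37 °C. Luciferase measured by chemiluminescence (RLU/sec/well); 2-dose results given as percent inhibition of the response to an EC50 concentration of FSH.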

hFSH-R = target: T2, hFSH-R (Homo sapiens, UniProt P23945); test: cAMP accumulation (RIA) in CHO-3D2 cells (hFSH-R), hFSH-induced; format: cell-based; conditions: for Emax: read-out: cAMP % efficacy
T2 construct: expressed in transfected cells; host or cells: CHO-3D2 cells (CHO-K1 parental line)
T2 sequence (P23945 18-695): T1 sequence (P23945 18-695)
Protocol: In Vitro Bio-Assay, Selectivity and Dependency of Agonists and Antagonists to the FSH Receptor
Compound Vehicle: Stock compounds were solubilized in 100% DMSO (Sigma-Aldrich Chemical Co., St. Louis, Mo.) at a concentration of 30 mM. The compounds subsequently were diluted in sterile assay medium consisting of Opti-MEM® I (Invitrogen/Life Technologies, Carlsbad, Calif.) with 0.1% (w/v) BSA (Sigma-Aldrich) prior to use in the bio-assay. The final concentration of DMSO in the assay was 0.1%.
Plated cells are then incubated at 37° C. in a humidified 5% CO2/95% air atmosphere.
Assay: On the day of the assay, cells were washed three times with 100 μl/well of assay medium consisting of Opti-MEM® I (Invitrogen/Life Technologies) with 0.1% (w/v) BSA (Sigma-Aldrich). Medium was removed and 100 μl of assay medium was added to each well. Plates were incubated for an additional 30 minutes at 37° C. […] Reactions were terminated by the addition of 50 μl of 0.2N hydrochloric acid to each well and cAMP-accumulation was measured by radioimmunoassay (RIA) using a commercially available kit (Amersham Biosciences, Piscataway, N.J.).
All test compounds were evaluated in a dose-response paradigm ranging from 0.01 to 30 μM. Controls and test compounds were evaluated in quadruplicate in a 96-well format.
Along with the test compounds, FSH also was run as a positive control in the agonist mode using concentrations ranging from 0.1-1000 ng/ml.
Data were analyzed by one-way analysis of variance and significant differences between treatments and control determined by Least Significant Difference test.
Test compounds were compared to the effect of purified human FSH.

[1] = 2-dose format, concentration in parentheses 30 μM, inhibition of the response to EC50 of FSH
[2] = inhibition of cAMP accumulation induced by hFSH at EC20, CHO-3D2 cells

| SMILES | pIC50 (human FSH receptor) | pIC50 (hFSH-R) | Emax (hFSH-R) | melting point | inhibition at 30 µM (human FSH receptor; [1]) | CRE % inhibition (μM) (human FSH receptor; [1]) | pIC50 (hFSH-R; [2]) | cAMP % efficacy (hFSH-R; [2]) |
| --- | --- | --- | --- | --- | --- | --- | --- | --- |
| COc1ccccc1-c1ccc(C(=O)N2Cc3ccc(C(=O)NCC(c4ccccc4)N(C)C)n3Cc3ccccc32)cc1 (stereo not shown) [Example 2] | 4.59 | 5.92 | 100% | – | – | – | – | – |
| Cc1ccccc1-c1ccc(C(=O)N2Cc3ccc(C(=O)NCc4cccc(C(F)(F)F)c4)n3Cc3ccccc32)cc1C [Example 16] | 5.07 | 4.85 | 65% | 171 to 173 °C | – | – | – | – |
| Cc1ccccc1-c1ccc(C(=O)N2Cc3ccc(C(=O)NCc4ccc(Cl)cc4)n3Cc3ccccc32)cc1C [Example 18] | – | < 4.52 | – | 196 to 197 °C | 58% | – | – | – |
| COc1cc(CNC(=O)c2ccc3n2Cc2ccccc2N(C(=O)c2ccc(-c4ccccc4C)c(C)c2)C3)cc(OC)c1 [Example 20] | 4.92 | < 4.52 | – | 183 to 184 °C | – | – | – | – |
| COc1cc(C(=O)N2Cc3ccc(C(=O)NCc4ccc(F)cc4F)n3Cc3ccccc32)ccc1-c1ccccc1C [Example 61, N-(2,4-DILUOROBENZYL)-10-[(2-METHOXY-2′-METHYL-1,1′-BIPHENYL-4-YL)CARBONYL]-10,11-DIHYDRO-5H-PYRROLO[2,1-C][1,4]BENZODIAZEPINE-3-CARBOXAMIDE] | 5.37 | – | – | – | – | 50(30) % | 5.55 | 82% |
| COC(=O)c1ccc(NC(=O)c2ccc3n2Cc2ccccc2N(C(=O)COc2ccc(Cl)cc2)C3)cc1OC [Example 95, METHYL 4-[({10-[(4-CHLOROPHENOXY)ACETYL]-10,11-DIHYDRO-5H-PYRROLO[2,1-C][1,4]BENZODIAZEPIN-3-YL}CARBONYL)AMINO]-2-METHOXYBENZOATE] | < 4.52 | – | – | 172 to 174 °C | – | – | – | – |
| CCOC(=O)c1ccc(NC(=O)c2ccc3n2Cc2ccccc2N(C(=O)COc2ccc(Cl)cc2)C3)cc1 [Example 96, ETHYL 4-[({10-[(4-CHLOROPHENOXY)ACETYL]-10,11-DIHYDRO-5H-PYRROLO[2,1-C][1,4]BENZODIAZEPIN-3-YL}CARBONYL)AMINO]BENZOATE] | < 4.52 | – | – | 199 to 201 °C | – | – | – | – |
| O=C(Nc1ccc2c(c1)C(O)c1ccccc1-2)c1ccc2n1Cc1ccccc1N(C(=O)COc1ccc(Cl)cc1)C2 (stereo not shown) [Example 97, 10-[(4-CHLOROPHENOXY)ACETYL]-N-(9-HYDROXY-9H-FLUOREN-2-YL)-10,11-DIHYDRO-5H-PYRROLO[2,1-C][1,4]BENZODIAZEPINE-3-CARBOXAMIDE] | < 4.52 | – | – | 176 to 182 °C | – | – | – | – |
| COC(=O)c1cc(NC(=O)c2ccc3n2Cc2ccccc2N(C(=O)COc2ccc(Cl)cc2)C3)cc(C(=O)OC)c1 [Example 98, DIMETHYL 5-[({10-[(4-CHLOROPHENOXY)ACETYL]-10,11-DIHYDRO-5H-PYRROLO[2,1-C][1,4]BENZODIAZEPIN-3-YL}CARBONYL)AMINO]ISOPHTHALATE] | < 4.52 | – | – | 213 to 217 °C | – | – | – | – |
| CCOC(=O)c1cccc(NC(=O)c2ccc3n2Cc2ccccc2N(C(=O)COc2ccc(Cl)cc2)C3)c1 [Example 99, ETHYL 3-[({10-[(4-CHLOROPHENOXY)ACETYL]-10,11-DIHYDRO-5H-PYRROLO[2,1-C][1,4]BENZODIAZEPIN-3-YL}CARBONYL)AMINO]BENZOATE] | < 4.52 | – | – | 179 to 180 °C | – | – | – | – |
| O=C(Nc1cccc(-c2ccccc2)c1)c1ccc2n1Cc1ccccc1N(C(=O)COc1ccc(Cl)cc1)C2 [Example 100, N-(1,1′-BIPHENYL-3-YL)-10-[(4-CHLOROPHENOXY)ACETYL]-10,11-DIHYDRO-5H-PYRROLO[2,1-C][1,4]BENZODIAZEPINE-3-CARBOXAMIDE] | < 4.52 | – | – | 185 to 189 °C | – | – | – | – |
| CN(C)c1cccc(NC(=O)c2ccc3n2Cc2ccccc2N(C(=O)COc2ccc(Cl)cc2)C3)c1 [Example 101, 10-[(4-CHLOROPHENOXY)ACETYL]-N-[3-(DIMETHYLAMINO)PHENYL]-10,11-DIHYDRO-5H-PYRROLO[2,1-C][1,4]BENZODIAZEPINE-3-CARBOXAMIDE] | < 4.52 | – | – | 133 to 136 °C | – | – | – | – |
| CC(C)(C)c1ccc(NC(=O)c2ccc3n2Cc2ccccc2N(C(=O)COc2ccc(Cl)cc2)C3)cc1 [Example 102, N-(4-TERT-BUTYLPHENYL)-10-[(4-CHLOROPHENOXY)ACETYL]-10,11-DIHYDRO-5H-PYRROLO[2,1-C][1,4]BENZODIAZEPINE-3-CARBOXAMIDE] | < 4.52 | – | – | 111 to 113 °C | – | – | – | – |
| O=C1c2cc(Br)ccc2-c2ccc(NC(=O)c3ccc4n3Cc3ccccc3N(C(=O)COc3ccc(Cl)cc3)C4)cc21 [Example 103, N-(7-BROMO-9-OXO-9H-FLUOREN-2-YL)-10-[(4-CHLOROPHENOXY)ACETYL]-10,11-DIHYDRO-5H-PYRROLO[2,1-C][1,4]BENZODIAZEPINE-3-CARBOXAMIDE] | < 4.52 | – | – | 277 to 278 °C | – | – | – | – |
| O=C(NCCc1ccc2c(c1)OCO2)c1ccc2n1Cc1ccccc1N(C(=O)CSc1ccc(Br)cc1)C2 [Example 104, N-[2-(1,3-BENZODIOXOL-5-YL)ETHYL]-10-{[(4-BROMOPHENYL)THIO]ACETYL}-10,11-DIHYDRO-5H-PYRROLO[2,1-C][1,4]BENZODIAZEPINE-3-CARBOXAMIDE] | < 4.52 | – | – | 143 °C | – | – | – | – |

Now from value to compound, other results behind:

| pIC50 (human FSH receptor) | pIC50 (hFSH-R) | Emax (hFSH-R) | melting point | inhibition at 30 µM (human FSH receptor; [1]) | SMILES | CRE % inhibition (μM) (human FSH receptor; [1]) | pIC50 (hFSH-R; [2]) | cAMP % efficacy (hFSH-R; [2]) |
| --- | --- | --- | --- | --- | --- | --- | --- | --- |
| 5.65 | 6.52 | 89% | – | – | COc1cccc(CNC(=O)c2ccc3n2Cc2ccccc2N(C(=O)c2ccc(-c4ccccc4C)c(C)c2)C3)c1 [Example 7] | – | – | – |
| 5.62 | 5.44 | 63% | 127 to 128 °C | – | COc1ccc(CNC(=O)c2ccc3n2Cc2ccccc2N(C(=O)c2ccc(-c4ccccc4C)c(C)c2)C3)cc1 [Example 8] | – | – | – |
| 5.38 | 6.05 | 97% | – | – | Cc1ccccc1-c1ccc(C(=O)N2Cc3ccc(C(=O)NCc4cccc(O)c4)n3Cc3ccccc32)cc1C [Example 10] | – | – | – |
| 5.77 | 5.59 | 86% | 179 to 181 °C | – | Cc1ccc(CNC(=O)c2ccc3n2Cc2ccccc2N(C(=O)c2ccc(-c4ccccc4C)c(C)c2)C3)cc1 [Example 14] | – | – | – |
| 5.59 | 6.40 | 90% | 138 to 141 °C | – | Cc1ccccc1-c1ccc(C(=O)N2Cc3ccc(C(=O)NCc4ccccc4)n3Cc3ccccc32)cc1C [Example 15] | – | – | – |
| 5.19 | 5.59 | 88% | 128 to 130 °C | – | Cc1ccccc1CNC(=O)c1ccc2n1Cc1ccccc1N(C(=O)c1ccc(-c3ccccc3C)c(C)c1)C2 [Example 17] | – | – | – |
| 5.21 | < 4.52 | – | 159 to 161 °C | – | Cc1ccc(CNC(=O)c2ccc3n2Cc2ccccc2N(C(=O)c2ccc(-c4ccccc4C)c(C)c2)C3)c(C)c1 [Example 21] | – | – | – |
| 5.54 | 5.52 | 62% | 130 to 132 °C | – | Cc1cccc(CNC(=O)c2ccc3n2Cc2ccccc2N(C(=O)c2ccc(-c4ccccc4C)c(C)c2)C3)c1 [Example 22] | – | – | – |
| 5.85 | 5.11 | 77% | 149 to 151 °C | – | Cc1ccccc1-c1ccc(C(=O)N2Cc3ccc(C(=O)NCc4ccc5c(c4)OCO5)n3Cc3ccccc32)cc1C [Example 23] | – | – | – |
| 6.10 | 6.70 | 100% | 129 to 131 °C | – | Cc1ccccc1-c1ccc(C(=O)N2Cc3ccc(C(=O)NCCc4ccc(O)cc4)n3Cc3ccccc32)cc1C [Example 31] | – | – | – |
| 5.25 | < 4.52 | – | – | – | Cc1ccccc1-c1ccc(C(=O)N2Cc3ccc(C(=O)NCCc4ccc5c(c4)OCO5)n3Cc3ccccc32)cc1C [Example 33] | – | – | – |
